Source: ChEMBL document CHEMBL4196239, “Bromopyrrole Alkaloid Inhibitors of the Proteasome Isolated from a Dictyonella sp. Marine Sponge Collected at the Amazon River Mouth” (J Nat Prod, 2018)

Assay: Inhibition of yeast chymotrypsin-like 20S proteasome using suc-LLVY-AMC as substrate pretreated for 1 hr followed by substrate addition measured every 2 mins for 1 hr by fluorescence assay
Parameters: species or system Saccharomyces cerevisiae

SMILES | IC50
N=C(N)Nc1c2n(c(=O)c3[nH]cc(Br)c13)CCC2 | > 100 µM
N=C(N)Nc1c2n(c(=O)c3[nH]c(Br)cc13)CCC2 | > 100 µM
N=C1N[C@@H](O)[C@@]2(N1)[C@@H](Cl)[C@H](CN)[C@H]1CN3C(=O)c4ccc(Br)n4[C@@H]4NC(=N)N[C@@]43[C@@H]12 | 9.2 µM

More lines, in order of falling IC50, values ahead:

IC50 | SMILES
69 µM | NC1=N[C@@]23CCCN2C(=O)c2[nH]cc(Br)c2[C@H]3N1
27 µM | Nc1ncc(/C=C/CNC(=O)c2ccc(Br)[nH]2)[nH]1
23 µM | Nc1nc(/C=C/CNC(=O)c2cc(Br)c[nH]2)c[nH]1
